Literature values in patent US5691376A, “Substituted biphenyl derivatives” (American Home Products Corporation, priority 1996, dated 1997).

Experiments:
[1] = system: humoral (IgE-like) antibodies; conditions: albumin allergic challenge; Martel 1977; cited from earlier work
murine T-cell = conditions: Strauch 1989; cited from earlier work

Structure (SMILES): CO[C@H]1C[C@@H]2CC[C@@H](C)[C@@](O)(O2)C(=O)C(=O)N2CCCC[C@H]2C(=O)O[C@H]([C@H](C)C[C@@H]2CC[C@@H](O)[C@H](OC)C2)CC(=O)[C@H](C)/C=C(\C)[C@@H](O)[C@@H](OC)C(=O)[C@H](C)C[C@H](C)/C=C/C=C/C=C/1C [Rapamycin]
- prevention of formation of humoral (IgE-like) antibodies [1]: prevent the formation of humoral (IgE-like) antibodies in response to an albumin allergic challenge
- inhibition of T-cell activation (murine T-cell): inhibit murine T-cell activation
